Reference: article PMC12016938, “A small molecule PKCε inhibitor reduces hyperalgesia induced by paclitaxel or opioid withdrawal” (JCI Insight, 2025)
Several values for one entry are separate records, joined by “and”; a condition that tells them apart may be missing. Identical values can stand only once.

Assays:
[1] = target: T1, PRKG2 (Protein Kinase CGMP-Dependent 2) (Homo sapiens, UniProt Q13237); assay: scanMax kinome panel, PRKG2; assay type: binding; details: 200 nM CP612
T1 construct: purchased Eurofins-DiscoverX
T1 sequence (Q13237 whole entry): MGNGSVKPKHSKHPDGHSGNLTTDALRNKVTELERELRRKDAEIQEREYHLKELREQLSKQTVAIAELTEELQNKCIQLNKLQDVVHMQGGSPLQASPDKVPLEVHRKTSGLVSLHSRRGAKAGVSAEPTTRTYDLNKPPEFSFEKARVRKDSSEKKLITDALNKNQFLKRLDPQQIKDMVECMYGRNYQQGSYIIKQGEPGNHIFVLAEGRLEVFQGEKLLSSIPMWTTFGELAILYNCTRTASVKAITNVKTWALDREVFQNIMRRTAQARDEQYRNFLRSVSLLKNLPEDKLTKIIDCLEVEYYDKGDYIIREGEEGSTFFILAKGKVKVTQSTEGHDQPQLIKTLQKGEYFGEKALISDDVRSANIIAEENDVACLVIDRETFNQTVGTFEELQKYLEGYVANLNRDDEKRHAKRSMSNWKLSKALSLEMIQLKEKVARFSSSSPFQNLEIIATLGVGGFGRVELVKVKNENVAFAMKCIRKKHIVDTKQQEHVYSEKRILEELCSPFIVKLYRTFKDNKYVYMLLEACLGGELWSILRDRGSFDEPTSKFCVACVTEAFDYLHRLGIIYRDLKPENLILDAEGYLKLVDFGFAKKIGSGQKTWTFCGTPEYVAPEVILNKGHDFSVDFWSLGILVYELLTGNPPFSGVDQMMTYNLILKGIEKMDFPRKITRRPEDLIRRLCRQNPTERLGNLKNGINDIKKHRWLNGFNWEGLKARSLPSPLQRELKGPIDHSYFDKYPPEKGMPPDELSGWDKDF
Procedure: (§1) CP612 was screened for kinome specificity at 200 nM against 468 kinases using the scanMax assay panel from Eurofins-DiscoverX. CP612 inhibited 10 other WT kinases besides PKCε, all to < 10% of control: CLK1 (CDC Like Kinase 1), CLK4, PKN1 (Protein kinase N1), PKN2, PKCδ, PKCη, PKCθ, PRKG2 (Protein Kinase CGMP-Dependent 2), ROCK1, and ROCK2.

PKCθ = PKCθ (Homo sapiens, UniProt Q04759); assay: scanMax kinome panel, PKCθ; assay type: binding; design: purchased Eurofins-DiscoverX; details: 200 nM CP612; read-out: scanMax % of control, PKCθ
Chain of PKCθ (Q04759 whole entry): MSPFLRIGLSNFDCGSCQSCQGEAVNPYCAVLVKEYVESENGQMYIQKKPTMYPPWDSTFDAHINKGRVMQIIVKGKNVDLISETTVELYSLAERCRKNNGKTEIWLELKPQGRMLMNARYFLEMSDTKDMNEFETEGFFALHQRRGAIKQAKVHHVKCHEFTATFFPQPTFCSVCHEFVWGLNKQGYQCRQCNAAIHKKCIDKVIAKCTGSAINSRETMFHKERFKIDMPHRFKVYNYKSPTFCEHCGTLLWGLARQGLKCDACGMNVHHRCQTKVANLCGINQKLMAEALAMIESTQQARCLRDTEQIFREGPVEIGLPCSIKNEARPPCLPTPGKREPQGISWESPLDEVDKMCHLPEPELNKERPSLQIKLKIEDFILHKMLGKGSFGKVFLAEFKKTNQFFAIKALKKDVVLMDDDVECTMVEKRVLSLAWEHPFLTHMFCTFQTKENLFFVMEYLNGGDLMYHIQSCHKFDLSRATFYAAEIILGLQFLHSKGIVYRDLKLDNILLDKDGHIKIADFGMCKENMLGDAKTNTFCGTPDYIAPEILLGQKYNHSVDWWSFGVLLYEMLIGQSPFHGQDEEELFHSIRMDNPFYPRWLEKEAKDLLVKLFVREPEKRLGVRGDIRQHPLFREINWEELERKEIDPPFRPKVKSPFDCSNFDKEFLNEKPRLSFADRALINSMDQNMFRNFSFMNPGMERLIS
Procedure: as §1

PKCε = target: T2, PKCε (Homo sapiens, UniProt Q02156); assay: PKCε activity with increasing ATP and CP612 (ATP competition); assay type: biochemical; design: His; AVI; made in house; host or cells: Sf9 cells; details: for Kinase activity (% control): PKCε, log [CP612]
T2 sequence (Q02156 1-737): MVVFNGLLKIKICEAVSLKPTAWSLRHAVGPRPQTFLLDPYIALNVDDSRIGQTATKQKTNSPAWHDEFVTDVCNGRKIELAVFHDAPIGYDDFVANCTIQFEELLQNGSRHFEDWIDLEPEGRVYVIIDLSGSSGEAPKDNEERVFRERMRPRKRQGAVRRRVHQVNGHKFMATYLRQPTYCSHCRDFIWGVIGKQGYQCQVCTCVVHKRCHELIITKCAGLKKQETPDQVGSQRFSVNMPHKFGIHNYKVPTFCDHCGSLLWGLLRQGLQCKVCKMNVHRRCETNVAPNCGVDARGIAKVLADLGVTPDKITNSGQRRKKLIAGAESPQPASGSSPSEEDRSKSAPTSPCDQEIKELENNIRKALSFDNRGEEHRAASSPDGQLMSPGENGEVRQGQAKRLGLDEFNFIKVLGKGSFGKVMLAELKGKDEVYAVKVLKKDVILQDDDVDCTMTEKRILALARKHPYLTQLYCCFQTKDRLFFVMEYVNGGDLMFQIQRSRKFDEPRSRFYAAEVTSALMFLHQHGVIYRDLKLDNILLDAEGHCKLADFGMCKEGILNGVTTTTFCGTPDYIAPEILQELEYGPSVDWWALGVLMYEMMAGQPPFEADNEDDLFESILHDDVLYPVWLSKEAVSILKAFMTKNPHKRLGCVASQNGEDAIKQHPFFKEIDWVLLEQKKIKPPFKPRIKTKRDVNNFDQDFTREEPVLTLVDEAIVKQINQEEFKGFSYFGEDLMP
Procedure: Therefore, we assayed PKCε activity with increasing concentrations of ATP and in the presence of increasing concentrations of CP612.
Kinase assays. CP612 was assayed against His-AVI–tagged human PKCε (1 nM) produced in Sf9 cells, and ROCK1 (Carna Biosciences; 5 nM) using the Lance-FRET kinase assay system (PerkinElmer Revvity). Other human recombinant PKCs (SignalChem Biotech) were assayed in triplicate at the following concentrations: PKCβII 1.6 nM, PKCγ 500 pM, PKCδ 5 nM, PKCθ 500 pM, and PKCζ 500 pM. PKCs were incubated in a 15 μL reaction volume with kinase buffer (20 mM Tris-HCL [pH 7.4], 10 mM MgCl2, 0.25 mM EGTA, 0.1 mg/mL BSA, and 0.15% Triton X-100), 50 nM ULight-labeled CREBtide […] (PerkinElmer, TRF0107, Revvity), and test compound. […] after 60 minutes with 10 μL of 2.5× Stop Solution/Detection Mix containing 20 mM EDTA and 4 nM LANCE Ultra Europium anti–phospho-[…] peptide antibody (PerkinElmer, TRF0200, Revvity). After incubation at 27°C for another 60 minutes, phosphorylation was detected using a FlexStation 3 Microplate Reader (Molecular Devices) in LANCE TR-FRET mode (excitation = 340 nm, emission = 665 nm) and expressed as relative fluorescence units (RFU). The percentage of inhibition was calculated as: (signal without test compound − signal with test compound)/(signal without test compound − signal without ATP) × 100. The Z’ factor for this assay ranged between 0.72 and 0.86.

N[C@H](CNC(=O)C1(c2ccc(Cl)cc2)CCCC1)c1ccc(C(=O)Nc2ccncc2)cc1 [CP612]
scanMax % of control, PRKG2 [1]: < 10 % of control
remaining binding at 0.2 µM (PKCθ): < 10%
Increase of EC50 for ATP (PKCε; 300 nM CP612): 40 fold
Kinase activity (% control) (PKCε; [ATP] 0.183 µM, M -8.523, 0.183 µM): 47.534 % control and 24.462 % control and 35.552 % control
Kinase activity (% control) (PKCε; [ATP] 0.73 µM, M -6, 0.73 µM): 0.864 % control and 1.238 % control
Kinase activity (% control) (PKCε; [ATP] 2.93 µM, M -5.523, 2.93 µM): 0.280 % control and 0.321 % control
Kinase activity (% control) (PKCε; [ATP] 2.93 µM, M -6, 2.93 µM): 1.498 % control and 2.443 % control
Kinase activity (% control) (PKCε; [ATP] 2.93 µM, M -6.523, 2.93 µM): 4.077 % control and 4.559 % control
Kinase activity (% control) (PKCε; [ATP] 2.93 µM, M -7, 2.93 µM): 8.910 % control and 10.659 % control
Kinase activity (% control) (PKCε; [ATP] 2.93 µM, M -7.523, 2.93 µM): 20.262 % control and 21.135 % control
Kinase activity (% control) (PKCε; [ATP] 2.93 µM, M -8, 2.93 µM): 38.517 % control and 38.535 % control
Kinase activity (% control) (PKCε; [ATP] 2.93 µM, M -8.523, 2.93 µM): 63.294 % control and 62.615 % control
Kinase activity (% control) (PKCε; [ATP] 11.67 µM, M -6, 11.67 µM): 4.132 % control and 3.783 % control
Kinase activity (% control) (PKCε; [ATP] 11.67 µM, M -6.523, 11.67 µM): 10.586 % control and 9.278 % control
Kinase activity (% control) (PKCε; [ATP] 11.67 µM, M -7, 11.67 µM): 20.490 % control and 19.346 % control
Kinase activity (% control) (PKCε; [ATP] 11.67 µM, M -7.523, 11.67 µM): 38.625 % control and 36.759 % control
Kinase activity (% control) (PKCε; [ATP] 11.67 µM, M -8, 11.67 µM): 63.930 % control and 57.174 % control
Kinase activity (% control) (PKCε; [ATP] 11.67 µM, M -8.523, 11.67 µM): 75.246 % control and 100.913 % control and 75.385 % control
Kinase activity (% control) (PKCε; [ATP] 49 µM, M -6, 49 µM): 10.798 % control and 9.001 % control
Kinase activity (% control) (PKCε; [ATP] 49 µM, M -6.523, 49 µM): 25.250 % control and 20.067 % control
Kinase activity (% control) (PKCε; [ATP] 49 µM, M -7, 49 µM): 46.048 % control and 35.068 % control
Kinase activity (% control) (PKCε; [ATP] 49 µM, M -7.523, 49 µM): 52.594 % control and 73.832 % control and 56.661 % control
Kinase activity (% control) (PKCε; [ATP] 49 µM, M -8, 49 µM): 73.818 % control and 104.476 % control and 73.273 % control
Kinase activity (% control) (PKCε; [ATP] 49 µM, M -8.523, 49 µM): 102.193 % control and 87.045 % control
Kinase activity (% control) (PKCε; [ATP] 187 µM, M -6, 187 µM): 22.653 % control and 20.507 % control
Kinase activity (% control) (PKCε; [ATP] 187 µM, M -6.523, 187 µM): 46.882 % control and 37.693 % control
Kinase activity (% control) (PKCε; [ATP] 187 µM, M -7, 187 µM): 75.602 % control and 55.920 % control
Kinase activity (% control) (PKCε; [ATP] 187 µM, M -7.523, 187 µM): 95.087 % control and 100.001 % control and 71.937 % control
Kinase activity (% control) (PKCε; [ATP] 187 µM, M -8, 187 µM): 104.191 % control and 87.275 % control
Kinase activity (% control) (PKCε; [ATP] 187 µM, M -8.523, 187 µM): 106.161 % control and 97.914 % control
Kinase activity (% control) (PKCε; [ATP] 750 µM, M -5.523, 750 µM): 21.316 % control and 15.871 % control
Kinase activity (% control) (PKCε; [ATP] 750 µM, M -6, 750 µM): 49.150 % control and 51.871 % control
Kinase activity (% control) (PKCε; [ATP] 750 µM, M -6.523, 750 µM): 85.111 % control and 100.290 % control and 67.168 % control
Kinase activity (% control) (PKCε; [ATP] 750 µM, M -7, 750 µM): 106.868 % control and 86.984 % control
Kinase activity (% control) (PKCε; [ATP] 750 µM, M -7.523, 750 µM): 104.196 % control and 100.982 % control
Kinase activity (% control) (PKCε; [ATP] 750 µM, M -8, 750 µM): 105.985 % control and 104.633 % control
Kinase activity (% control) (PKCε; [ATP] 750 µM, M -8.523, 750 µM): 106.157 % control and 106.288 % control
Mode of inhibition of PKCε (PKCε; rightward shift at higher [ATP]): competing with ATP
